Measurements: patent US7622441B2, “Sustained release pharmaceutical compounds to prevent abuse of controlled substances” (Shire LLC, priority 2002, dated 2009)
Values joined by “and” are separate entries in the source; they are usually repeats but may differ in a detail not shown here. Equal entries are not always repeated. Structures can show the parent of a compound that is named as a salt. Where two headings read alike, the source gives them in different places. Where a SMILES comes first, the peptide text is derived from it. Where no end group is shown, it is not given here. [ ]: non-standard residue; d: D form. The star is where a group is joined. ξ: configuration not given here. X2 = COc1ccc2c3c1OC1C(O*)=CCC4C(C2)N(C)CCC314; ξL = CC(C)CC(N)C(=O)O

Assays:
[1] = Stability of narcotic conjugates in water (narcotic release, abuse resistance tests); type: physicochemical; details: for H2O (1 h, 90 C.) / H2O (24 h, RT): numbers based upon narcotic release; for % Release of Narcotic in Water: neutral pH
Source text: It is also possible to further stabilize any unstable conjugates by tethering to a larger peptide. […] The conjugates are also stable at a wide range of pH's.

[2] = Pharmacokinetics of peptide-amphetamine conjugates by oral administration (serum amphetamine by ELISA); details: rat
[3] = Pharmacokinetics of narcotic conjugates by oral administration (serum hydrocodone/oxycodone by ELISA); details: for Shape of the Curve: rat serum concentration curve vs. parent drug; for Peak Time / % AUC / % Cmax: rat serum; for Peak Time: multiple of parent drug's peak time; for % AUC / % Cmax: vs. equivalent dose of parent drug
male Sprague-Dawley rats = experiment: Analgesia by paw lick latency (PLL), hot plate nociceptive model, subcutaneous injection; type: in vivo; design: Paw Lick Latency: unit not given beside the values; details: for PLL: rat hot plate, cutoff time of 45 seconds; for Percent: PLL above basal level compared to HC; for Delta: basal PLL of untreated rats subtracted
[4] = intranasal; for Comments (curve) / Peak Time / % AUC / % Cmax: serum, buffer PBS; for Peak Time: multiple of hydrocodone's peak time; for % AUC / % Cmax: vs. hydrocodone
in vivo = details: Sprague-Dawley, rat, po, 3.6 mg, Serum Concentrations of Individual Rats, oral capsule, dose equal to 3.6 mg naltrexone
[5] = Serum naltrexone levels of rats orally dosed with BB301 polyserine-naltrexone conjugate vs. naltrexone (ELISA); details: rat; for Serum Concentrations of Individual Rats: equal dose (3.6 mg naltrexone)
[6] = rat, oral capsule; 2 hours was the first measurement
[7] = male, Sprague-Dawley, in vivo, po
[8] = Table 12, 15 min., equivalent dose
[9] = Table 12, 30 min, equivalent dose
[10] = Table 12, Basal (0 h), before treatment
[11] = Sprague-Dawley, in vivo, po, 1.8 mg, Mean Serum Concentrations +/− SD, oral capsule, ½ dose (1.8 mg) at 0 hours and at […]
[12] = Sprague-Dawley, in vivo, po, 3.6 mg
[13] = Sprague-Dawley, in vivo, po, 3.6 mg, Mean Serum Concentrations +/− SD, oral capsule, equal dose at time zero
[14] = oral solution in water, equivalent amount of amphetamine

COc1ccc2c3c1OC1C(OC(=O)C(C)(C)N)=CCC4C(C2)N(C)CCC314 (centres unmarked) [Aib-HC]
H2O (1 h, 90 C.) [1]: 45 | H2O (24 h, RT) [1]: 0

C[C@H](N)Cc1ccccc1 [Amphetamine, d-amphetamine sulfate, reference compound]
AUC(0-t) [2, 7]: 530 ng·h/mL | Cmax [2, 7]: 193 ng/mL

COc1ccc2c3c1OC1C(OC(=O)C4CCCN4C(=O)C(C)NC(=O)OC(C)(C)C)=CCC4C(C2)N(C)CCC314 (stereo not drawn) [Boc-Ala-Pro-HC, Boc-Ala-Pro-Hydrocodone]
Shape of the Curve [3]: ++Clearance | Peak Time [3]: 1X | % AUC [3]: 60% | % Cmax [3]: 97%

COc1ccc2c3c1OC1C(OC(=O)C(CC(C)C)NC(=O)CNC(=O)CNC(=O)CNC(=O)CN)=CCC4C(C2)N(C)CCC314 (stereo not drawn) [GGGGL-HC, Gly-Gly-Gly-Gly-Leu-Hydrocodone] (H-GGGG[ξL]-X2)
Paw Lick Latency (male Sprague-Dawley rats; Table 12, 60, 2× the equivalent dose): 5 | Paw Lick Latency (male Sprague-Dawley rats; Table 12, 60, equivalent dose): 3.6 | Paw Lick Latency (male Sprague-Dawley rats; Table 12, 15 min., 2× the equivalent dose): 3 | Paw Lick Latency (male Sprague-Dawley rats; [8]): 6.8 | Paw Lick Latency (male Sprague-Dawley rats; Table 12, 30 min, 2× the equivalent dose): 5.6 | Paw Lick Latency (male Sprague-Dawley rats; [9]): 5.6 | Paw Lick Latency (male Sprague-Dawley rats; [10]): 7.5 | Paw Lick Latency (male Sprague-Dawley rats; Table 12, Basal (0 h), group given 2× the equivalent dose): 2.2

COc1ccc2c3c1OC1C(OC(=O)C(N)CCC(=O)O)=CCC4C(C2)N(C)CCC314 (centres unmarked) [Glu-HC, 6-O-Glu-Hydrocodone]
Comments (curve) [4]: Flat curve | Peak Time [4]: 6X | % AUC [4]: 60% | % Cmax [4]: 55% | % Release of Narcotic in Water ([1]; 0 Hours): 0% | % Release of Narcotic in Water ([1]; 1 Hour): 4% | % Release of Narcotic in Water ([1]; 6 Hours): 19% | % Release of Narcotic in Water ([1]; 24 Hours): 42% | H2O (1 h, 90 C.) [1]: 100 | H2O (24 h, RT) [1]: 79

COc1ccc2c3c1OC1C(OC(=O)CN)=CCC4C(C2)N(C)CCC314 (centres unmarked) [Gly-HC, 6-O-Gly-Hydrocodone]
% Release of Narcotic in Water ([1]; 0 Hours): 6% | % Release of Narcotic in Water ([1]; 1 Hour): 8% | % Release of Narcotic in Water ([1]; 6 Hours): 11% | % Release of Narcotic in Water ([1]; 24 Hours): 32% | H2O (1 h, 90 C.) [1]: 63 | H2O (24 h, RT) [1]: 26

COc1ccc2c3c1O[C@H]1C(=O)CC[C@H]4[C@@H](C2)N(C)CC[C@]314 [Hydrocodone]
Comments (curve) [4]: Rapid | Peak Time [4]: 1X | % AUC [4]: 100% | % Cmax [4]: 100% | PLL (male Sprague-Dawley rats; 30 minutes, subcutaneous): 40 | Percent (male Sprague-Dawley rats; 30 minutes): 100% | Delta (male Sprague-Dawley rats; 30 minutes): 34 | PLL (male Sprague-Dawley rats; 45 minutes, subcutaneous): 26.7 | Percent (male Sprague-Dawley rats; 45 minutes): 100% | Delta (male Sprague-Dawley rats; 45 minutes): 19.9 | Paw Lick Latency (male Sprague-Dawley rats; Table 11, 15 min., subcutaneous): 25.5 | Paw Lick Latency (male Sprague-Dawley rats; Table 11, 30 min, subcutaneous): 42.4 | Paw Lick Latency (male Sprague-Dawley rats; Table 11, 45 min., subcutaneous): 36.3 | Paw Lick Latency (male Sprague-Dawley rats; Table 11, 60 min., subcutaneous): 26.6 | Paw Lick Latency (male Sprague-Dawley rats; Table 11, Basal (0 h), before treatment): 5.5 | Paw Lick Latency (male Sprague-Dawley rats; Table 12, 60, equivalent dose): 15.1 | Paw Lick Latency (male Sprague-Dawley rats; [8]): 31.9 | Paw Lick Latency (male Sprague-Dawley rats; [9]): 24.5 | Paw Lick Latency (male Sprague-Dawley rats; [10]): 5.6

CCC(C)C(N)C(=O)OC1=CCC2C3Cc4ccc(OC)c5c4C2(CCN3C)C1O5 (centres unmarked) [Ile-HC]
H2O (1 h, 90 C.) [1]: 46 | H2O (24 h, RT) [1]: 16

COc1ccc2c3c1OC1C(OC(=O)C(CC(C)C)NC(=O)C(CC(C)C)NC(=O)C(N)CC(C)C)=CCC4C(C2)N(C)CCC314 (centres unmarked) [LLL-HC]
Paw Lick Latency (male Sprague-Dawley rats; Table 12, 60, equivalent dose): 3.2 | Paw Lick Latency (male Sprague-Dawley rats; [8]): 5.7 | Paw Lick Latency (male Sprague-Dawley rats; [9]): 3.9 | Paw Lick Latency (male Sprague-Dawley rats; [10]): 4.1

COc1ccc2c3c1O[C@H]1C(OC(=O)[C@@H](N)CC(C)C)=CC[C@H]4[C@@H](C2)N(C)CC[C@]314 [Leu-HC, Leu-Hydrocodone]
H2O (1 h, 90 C.) [1]: 49 | H2O (24 h, RT) [1]: 10

O=C1CC[C@@]2(O)[C@H]3Cc4ccc(O)c5c4[C@@]2(CCN3CC2CC2)[C@H]1O5 [Naltrexone]
concentration at 12 h (in vivo): 1 ng/mL | concentration at 0.5 h [5, 11]: 72 ng/mL | concentration at 3 h [5, 11]: 13 ng/mL | concentration at 5 h [5, 11]: 4 ng/mL | concentration at 8 h [5, 11]: 68 ng/mL | concentration at 11.5 h ([5]; Sprague-Dawley, in vivo, po, 1.8 mg, Mean Serum Concentrations +/− SD, oral capsule, ½ dose (1.8 mg) at 0 hours and at […], 11.5 hours): 11 ng/mL | concentration at 24 h ([5]; Sprague-Dawley, in vivo, po, 1.8 mg, Mean Serum Concentrations +/− SD, oral capsule, ½ dose (1.8 mg) at 0 hours and at […], 24 hours): 6 ng/mL | AUC(0-t) [5, 12]: 477 ng·h/mL | Cmax [5, 12]: 124 ng/mL | Tmax [5, 12]: 45 min | concentration at 0.5 h [5, 13]: 115 ng/mL | concentration at 3 h [5, 13]: 55 ng/mL | concentration at 5 h [5, 13]: 56 ng/mL | concentration at 8 h [5, 13]: 7 ng/mL | concentration at 12 h ([5]; Sprague-Dawley, in vivo, po, 3.6 mg, Mean Serum Concentrations +/− SD, oral capsule, equal dose at time zero, 12 hours): 2 ng/mL | concentration at 15 h ([5]; Sprague-Dawley, in vivo, po, 3.6 mg, Mean Serum Concentrations +/− SD, oral capsule, equal dose at time zero, 15 hours): 2 ng/mL | concentration at 24 h ([5]; Sprague-Dawley, in vivo, po, 3.6 mg, Mean Serum Concentrations +/− SD, oral capsule, equal dose at time zero, 24 hours): 2 ng/mL | time at which naltrexone serum levels spiked ([5]; oral capsule, equal dose): 0.5 h | Serum Concentrations of Individual Rats ([5]; oral capsule, 12 hours): 2 ng/mL | Serum Concentrations of Individual Rats ([5]; oral capsule, 15 hours): 1 ng/mL and 2 ng/mL | Serum Concentrations of Individual Rats ([5]; oral capsule, 24 hours): 1 ng/ml (2×) and 3 ng/ml and 2 ng/ml | time at which serum levels spiked [6]: 2 h

CC(Cc1ccccc1)NC(=O)[C@@H](N)Cc1ccccc1 (some centres unmarked) [Phe-Amp]
Cmax and AUC compared with those of the parent drug ([2]; oral): nearly equal | AUC 0-12 h [2, 14]: 505 ng·h/mL | Cmax [2, 14]: 175 +/− 77

COc1ccc2c3c1OC1C(OC(=O)C(N)Cc4ccccc4)=CCC4C(C2)N(C)CCC314 (centres unmarked) [Phe-HC]
H2O (1 h, 90 C.) [1]: 54

COc1ccc2c3c1O[C@H]1C(OC(=O)[C@@H]4CCCN4)=CC[C@H]4[C@@H](C2)N(C)CC[C@]314 [Pro-HC, 6-O-Pro-Hydrocodone]
% Release of Narcotic in Water ([1]; 0 Hours): 4% | % Release of Narcotic in Water ([1]; 1 Hour): 11% | % Release of Narcotic in Water ([1]; 6 Hours): 25% | % Release of Narcotic in Water ([1]; 24 Hours): 71% | H2O (1 h, 90 C.) [1]: 97 | H2O (24 h, RT) [1]: 71

COc1ccc2c3c1OC1C(OC(=O)OC[C@H]4OC(O)C(O)[C@H]4O)=CCC4[C@@H](C2)N(C)CC[C@]314.Cl (some centres unmarked) [Ribose-HC]
Comments (curve) [4]: No change | Peak Time [4]: 1X | % AUC [4]: 20% | % Cmax [4]: 34% | inhibition of IN absorption ([4]; compound still contained small amounts of free hydrocodone): approximately 80% | H2O (24 h, RT) [1]: 4 | Shape of the Curve [3]: No change | Peak Time [3]: 1X | % AUC [3]: 106% | % Cmax [3]: 132%

CC(Cc1ccccc1)NC(=O)C(N)CO (centres unmarked) [Ser-Amp]
AUC 0-12 h [2, 14]: 290 ng·h/mL | Cmax [2, 14]: 146 +/− 85 | Percent Amphetamine (AUC 0-12 h) ([2]; oral, AUC relative to amphetamine): 55% | Percent Amphetamine (Cmax) ([2]; oral, Cmax relative to amphetamine): 76%

COc1ccc2c3c1OC1C(OC(=O)C(N)CO)=CCC4C(C2)N(C)CCC314 (centres unmarked) [Ser-HC]
H2O (1 h, 90 C.) [1]: 98 | H2O (24 h, RT) [1]: 45

Ala-Pro-Hydrocodone [Ala-Pro-HC]
H2O (1 h, 90 C.) [1]: 100 | H2O (24 h, RT) [1]: 100

Glu5-HC: pentapeptide conjugate of hydrocodone (SEQ ID NO: 2) (EEEEE; also: hydrocodone conjugate)
H2O (1 h, 90 C.) [1]: 53
